In USRE33699E, “Growth hormone-releasing factor analogs” (International Minerals & Chemical Corp., priority 1990, dated 1991):
Square brackets hold non-standard residues; d marks the D form. Peptide text beside a SMILES is read from it. Nle = CCCC[C@H](N)C(=O)O

System: rat pituitary cells
Assay: Bioassay of hGRF analogs: stimulation of growth hormone release in rat pituitary cells in tissue culture
Type: cell-based
Settings: for Dose Needed to Release 2.01 μg/ml of GH: 2.01 μg/ml = GH released at the ED50 of hGRF; for Dose Needed to Release 2.01 μg/ml of GH / Relative Maximum Activity (% of hGRF): from ALLFIT curves; for Potency: (ED50 of hGRF)/(Dose required to give same response as ED50 of hGRF)
Description: The assay for biological activity, which is based on the ability to stimulate release of growth hormone in rat pituitary cells in tissue culture, has been described in detail (Culler, M. D.; Kenjo, T.: Obara, N.; Arimuar, A., Stimulation of cAMP. Accumulation by Human Pancreatic GH-Releasing Factor(1-44). Am. J. Physiol. 1984, 247 (Endocrinol.Metab. 10). E609-E615.
ALLFIT, the 4-parameter logistic curve fitting program available from the Biomedical Computer Technology Information Center, Vanderbilt Medical Center, Nashville Tenn., was used to determine ED50 and maximal stimulated values from the data. In several instances, the amount of GH released reached a maximum value and decreased with further increasing doses of the hGRF analogs. To simplify the data analysis, these values were not used in the calculations. The calculated maximal responses, the doses of the analog required to release the amount of GH released at the ED50 of the standard (hGRF) and the potencies of the analogs relative to hGRF, are given in Table 2. Generally all novel analogs were fully active and were able to stimulate the release of growth hormone with maximal values of GH release being within 80% of the value for natural hGRF.

Row | Compound | Dose Needed to Release 2.01 μg/ml of GH | Potency | Relative Maximum Activity (% of hGRF)
1 | CCCC[C@H](NC(=O)[C@@H](NC(=O)[C@H](CC(=O)O)NC(=O)[C@H](CCC(N)=O)NC(=O)[C@H](CC(C)C)NC(=O)[C@H](CC(C)C)NC(=O)[C@H](CCCCN)NC(=O)[C@H](CCCNC(=N)N)NC(=O)[C@H](C)NC(=O)[C@H](CO)NC(=O)[C@H](CC(C)C)NC(=O)[C@H](CCC(N)=O)NC(=O)CNC(=O)[C@H](CC(C)C)NC(=O)[C@@H](NC(=O)[C@H](CCCCN)NC(=O)[C@H](CCCNC(=N)N)NC(=O)[C@H](Cc1ccc(O)cc1)NC(=O)[C@H](CO)NC(=O)[C@H](CC(=O)O)NC(=O)[C@@H](NC(=O)[C@H](Cc1ccccc1)NC(=O)[C@@H](NC(=O)[C@H](C)NC(=O)[C@H](CC(=O)O)NC(=O)[C@H](C)NC(=O)[C@@H](N)Cc1ccc(O)cc1)[C@@H](C)CC)[C@@H](C)O)C(C)C)[C@@H](C)CC)C(=O)N[C@@H](CO)C(=O)N[C@@H](CCCNC(=N)N)C(=O)N[C@@H](CCC(N)=O)C(=O)N[C@@H](CCC(N)=O)C(N)=O [[Asp^8, Nle^27]-hGRF(1-31)--NH2, [Asp^8,Nle^27]-hGRF(1-31)--NH2] (H-YADAIFTDSYRKVLGQLSARKLLQDI[Nle]SRQQ-NH2) | 0.39 nM | 82% | 109 % of hGRF
2 | CC[C@H](C)[C@H](NC(=O)[C@H](C)NC(=O)[C@H](CC(=O)O)NC(=O)[C@H](C)NC(=O)[C@@H](N)Cc1ccc(O)cc1)C(=O)N[C@@H](Cc1ccccc1)C(=O)N[C@H](C(=O)N[C@@H](CC(N)=O)C(=O)N[C@@H](CO)C(=O)N[C@@H](Cc1ccc(O)cc1)C(=O)N[C@@H](CCCNC(=N)N)C(=O)N[C@@H](CCCCN)C(=O)N[C@H](C(=O)N[C@@H](CC(C)C)C(=O)NCC(=O)N[C@@H](CCC(N)=O)C(=O)N[C@@H](CC(C)C)C(=O)N[C@@H](CO)C(=O)N[C@@H](C)C(=O)N[C@@H](CCCNC(=N)N)C(=O)N[C@@H](CCCCN)C(=O)N[C@@H](CC(C)C)C(=O)N[C@@H](CC(C)C)C(=O)N[C@@H](CCC(N)=O)C(=O)N[C@@H](CC(=O)O)C(=O)N[C@H](C(=O)N[C@@H](CCSC)C(=O)N[C@@H](CO)C(=O)N[C@@H](CCCNC(=N)N)C(=O)N[C@@H](CCC(N)=O)C(=O)N[C@@H](CCC(N)=O)C(=O)NCC(=O)N[C@@H](CCC(=O)O)C(=O)N[C@@H](CO)C(=O)N[C@@H](CC(N)=O)C(=O)N[C@@H](CCC(N)=O)C(=O)N[C@@H](CCC(=O)O)C(=O)N[C@@H](CCCNC(=N)N)C(=O)NCC(=O)N[C@@H](C)C(=O)N[C@@H](CCCNC(=N)N)C(=O)N[C@@H](C)C(=O)N[C@@H](CCCNC(=N)N)C(=O)N[C@@H](CC(C)C)C(N)=O)[C@@H](C)CC)C(C)C)[C@@H](C)O [hGRF(1-44)--NH2, reference compound] | 0.32 nM | 100% | 100 % of hGRF
